Several values for one entry are separate records, joined by “and”; a condition that tells them apart may be missing. Equal values may be shown once. Read-outs that look alike come from different tables or passages of the source.
Tests used:
JAK-STAT = JAK-STAT signalling assay (OSM-triggered pSTAT1(2)-luciferase reporter in HeLa cells); format: cell-based, human
Description: HeLa cells were maintained in Dulbecco's Modified Eagle's Medium (DMEM) containing 10% heat inactivated fetal calf serum, 100 U/mL penicillin and 100 μg/mL streptomycin. HeLa cells were used at 70% confluence for transfection. 20,000 cells in 87 μL cell culture medium were transiently transfected with 40 ng pSTAT1(2)-luciferase reporter (Panomics), 8 ng of LacZ reporter as internal control reporter and 52 ng of pBSK using 0.32 μL Jet-PEI (Polyplus) as transfection reagent per well in 96-well plate format. After overnight incubation at 37° C., 5% CO2, transfection medium was removed. 81 μL of DMEM+1.5% heat inactivated fetal calf serum was added. 9 μL compound at 10× concentration was added for 60 min and then 10 μL of human OSM (Peprotech) at 33 ng/mL final concentration.
The compound was tested in duplicate starting from 20 μM followed by a 1/3 serial dilution, 8 doses in total (20 μM-6.6 μM-2.2 μM-740 nM-250 nM-82 nM-27 nM-9 nM) in a final concentration of 0.2% DMSO.
After overnight incubation at 37° C., 5% CO2 cells were lysed by adding 100 μL lysis buffer/well (PBS, 0.9 mM CaCl2, 0.5 mM MgCl2, 10% Trehalose, 0.05% Tergitol NP9, 0.3% BSA).
40 μL of cell lysate was used to read β-galactosidase activity by adding 180 μL 11-Gal solution (30 μL ONPG 4 mg/mL+150 μL β-Galactosidase buffer (0.06 M Na2HPO4, 0.04 M NaH2PO4, 1 mM MgCl2)) for 20 min. The reaction was stopped by addition of 50 μL Na2CO3 1 M. Absorbance was read at 405 nm.
Luciferase activity was measured using 40 μL cell lysate plus 40 μL of Steadylite® as described by the manufacturer (Perkin Elmer), on the Envision (Perkin Elmer).
Omitting OSM was used as a positive control (100% inhibition). As negative control […] (0% inhibition) was used. The positive and negative controls were used to calculate z′ and ‘percent inhibition’ (PIN) values.
Percentage inhibition=((fluorescence determined in the presence of vehicle−fluorescence determined for sample with test compound present) divided by (fluorescence determined in the presence of vehicle−fluorescence determined for sample without trigger))*100.
PIN values were plotted for compounds tested in dose-response and EC50 values were derived.

[1] = test system: IL-2-induced STAT5 phosphorylation (JAK1/JAK3 pathway); assay: Human whole blood assay (hWBA), IL-2 stimulation, phospho-STAT5 on CD4+ cells; format: cell-based; details: 5 different donors
Description: A flow cytometry analysis was performed to establish JAK1 over JAK2 compound selectivity ex vivo using human whole blood. Therefore, blood is taken from human volunteers who gave informed consent. Blood is then equilibrated for 30 min at 37° C. under gentle rocking, then aliquoted in Eppendorf tubes. Compound is added at different concentrations and incubated at 37° C. for 30 min under gentle rocking and subsequently stimulated for 20 min at 37° C. under gentle rocking with interleukin 6 (IL-6) for JAK1-dependent pathway stimulation, Interferon alpha (IFNα) for JAK1/TYK2 pathway stimulation, interleukin 2 (IL-2) for JAK1/JAK3 pathway stimulation or GM-CSF for JAK2-dependent pathway stimulation. Phospho-STAT1 (for IL-6- and IFNα-stimulated cells) and phospho-STAT5 (for IL-2- and GM-CSF-stimulated cells) levels are then evaluated using FACS analysis. […]
Cells were then washed once with 1×PBS and analyzed on a FACSCanto II flow cytometer (BD Biosciences).
50,000 total events were counted and Phospho-STAT1 positive cells were measured after gating on CD4+ cells, in the lymphocyte gate for IL-6- and IFNα-stimulated cells. Phospho-STAT5 positive cells were measured after gating on CD4+ cells, in the lymphocyte gate for IL-2-stimulated cells. Phospho-STAT5 positive cells were measured after gating on CD33+ cells. […]

IC50 (JAK-STAT; Homo sapiens, HeLa, average, read-out: IC50 (average)): > 7.43 µM
IC50 (JAK-STAT; Homo sapiens, HeLa, individual determinations, read-out: IC50): > 6.67 µM
IC50 (JAK-STAT; individual determinations): Non active
IC50 (JAK-STAT; individual determinations, read-out: IC50): > 6.67 µM and 8.94 µM
IC50 [1]: 19.6 µM
SMILES: Nc1nc2cccc(-c3ccc(CN4CCS(=O)(=O)CC4)cc3)n2n1 [Formula I, 5-[4-(1,1-Dioxothiomorpholin-4-ylmethyl)-phenyl]-[1,2,4]triazolo[1,5-a]pyridin-2-ylamine]
